Source: patent publication US20260092054A1, “FUSED RING COMPOUND AND PHARMACEUTICAL CONTAINING SAME” (KAKEN PHARMACEUTICAL CO., LTD., priority 2022, published 2026)

Tests used:
human STAT6 = experiment: Human STAT6 dependent reporter activity (IL-4 stimulated STAT6 reporter assay using STAT6-HEK293 cells); type: cell-based; details: IL-4 stimulation, luciferase activity; for inhibition at 0.1 µM / inhibition at 1 µM: Homo sapiens, read-out: Inhibition rate (%)
human STAT6/pIL-4Rα = target: T1, human STAT6/pIL-4Rα (Homo sapiens, UniProt P42226); experiment: Binding inhibitory activity between human STAT6/pIL-4Rα by fluorescence polarization method; details: rhSTAT6 (123-658) / FAM-pIL-4Rα peptide
T1 construct: histidine tag
T1 sequence (P42226 123-658): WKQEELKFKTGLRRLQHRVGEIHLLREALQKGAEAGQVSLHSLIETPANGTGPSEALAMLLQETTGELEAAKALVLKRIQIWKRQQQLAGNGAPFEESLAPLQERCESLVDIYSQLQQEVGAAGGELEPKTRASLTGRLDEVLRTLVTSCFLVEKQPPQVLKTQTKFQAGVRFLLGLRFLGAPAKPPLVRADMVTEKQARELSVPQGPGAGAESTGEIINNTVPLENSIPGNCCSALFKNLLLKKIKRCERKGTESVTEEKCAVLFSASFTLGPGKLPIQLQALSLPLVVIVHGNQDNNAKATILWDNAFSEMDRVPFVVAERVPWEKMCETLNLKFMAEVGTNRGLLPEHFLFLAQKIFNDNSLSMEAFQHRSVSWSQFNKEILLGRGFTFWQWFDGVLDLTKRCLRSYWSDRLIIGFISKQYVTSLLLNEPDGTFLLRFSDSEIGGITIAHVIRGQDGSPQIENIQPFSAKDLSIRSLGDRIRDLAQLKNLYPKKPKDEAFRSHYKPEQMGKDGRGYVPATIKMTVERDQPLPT
In short: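 His-tagged human STAT6 (residues 123–658, E. coli-expressed) was preincubated with compound for 30 min at RT in the dark, in buffer e.g. 50 mM NaCl, 10 mM HEPES pH 7.0, 1 mM DTT, 1 mM EDTA, 0.01% NP-40. FAM-pIL-4Rα peptide was then added for 30 min. Fluorescence polarisation was read at 485/535 nm, with IC50 interpolated linearly between two points flanking 50%.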

| Structure (SMILES) | inhibition at 0.1 µM (human STAT6; compound 0.1 μmol/L) [%] | IC50 (human STAT6/pIL-4Rα) [nM] | inhibition at 1 µM (human STAT6; compound 1 μmol/L) [%] | Inhibition rate (%) (human STAT6; compound 0.1 μmol/L) | Inhibition rate (%) (human STAT6; compound 1 μmol/L) |
| --- | --- | --- | --- | --- | --- |
| Cc1nn(C)c(=O)n1-c1ccc(-c2cc3ccnc(C(=O)Nc4cccc(C(N)=O)c4)c3n2CC2CCC2)cc1 [Ex. 120] | 74 | 500 |  |  |  |
| Cc1nn(C)c(=O)n1-c1ccc(-c2cc3ccnc(C(=O)Nc4ccc(F)c(C(N)=O)c4)c3n2CC2CCC2)cc1 [Ex. 121] | 40 | 420 | 97 |  |  |
| Cc1nn(C)c(=O)n1-c1ccc(-c2cc3ccnc(C(=O)Nc4cccc(C(N)=O)c4F)c3n2CC2CCC2)cc1 [Ex. 122] | 23 | 690 | 89 |  |  |
| Cc1nn(C)c(=O)n1-c1ccc(-c2cc3ccnc(C(=O)Nc4cccc(C(N)=O)c4F)c3n2CC2(C#N)CC2)cc1 [Ex. 123] | 40 | 500 | 96 |  |  |
| Cc1nn(C)c(=O)n1-c1ccc(-c2cc3cc(C(F)(F)F)cc(C(=O)Nc4ccc(F)c(C(N)=O)c4)c3n2CC2(C#N)CC2)cc1 [Ex. 124] | 57 | 450 | 99 |  |  |
| Cc1nn(C)c(=O)n1-c1ccc(-c2cc3cc(C(F)(F)F)cc(C(=O)Nc4cccc(C(N)=O)c4F)c3n2CC2(C#N)CC2)cc1 [Ex. 125] | 52 | 260 | 99 |  |  |
| Cc1nn(C)c(=O)n1-c1ccc(-c2cc3cc(C(F)(F)F)cc(C(=O)Nc4cccc(C(N)=O)c4)c3n2CC2(C#N)CC2)cc1 [Ex. 126] | 62 | 240 |  |  |  |
| CCn1c(-c2ccc(-n3c(C)nn(C)c3=O)nn2)cc2cc(C(F)(F)F)cc(C(=O)Nc3cccc(C(N)=O)c3F)c21 [Ex. 127] | 38 | 250 | 99 |  |  |
| CCn1c(-c2ccc(N3C(=O)C(C)CC3C)cc2)cc2ccnc(C(=O)Nc3ccc(F)c(C(N)=O)c3)c21 (centres unmarked) [Ex. 129] |  | 590 |  | 8 | 75 |
| CCn1c(-c2ccc(N3C(=O)C(C)CC3C)cc2)cc2ccnc(C(=O)Nc3ccc(F)c(C(N)=O)c3)c21 (centres unmarked) [Ex. 130] |  | 360 |  | 74 | 96 |
| CCn1c(-c2ccc(N3C(=O)C(C)CC3C)cc2)cc2ccnc(C(=O)Nc3cccc(C(N)=O)c3)c21 (centres unmarked) [Ex. 131] | 56 | 510 | 92 |  |  |
| COCCn1c(-c2ccc(N3C(=O)C(C)CC3C)cc2)cc2cc(C(F)(F)F)nc(C(=O)Nc3cccc(C(N)=O)c3)c21 (centres unmarked) [Ex. 132] | 70 | 520 | 96 |  |  |
| COCCn1c(-c2ccc(N3C(=O)C(C)CC3C)cc2)cc2cc(C(F)(F)F)nc(C(=O)Nc3ccc(F)c(C(N)=O)c3)c21 (centres unmarked) [Ex. 133] | 80 | 230 |  |  |  |
| CCn1c(-c2ccc(N3C(=O)C(C)CC3C)cc2)cc2cc(C(F)(F)F)nc(C(=O)Nc3cccc(C(N)=O)c3)c21 (centres unmarked) [Ex. 134] | 48 | 370 | 99 |  |  |
| CCn1c(-c2ccc(N3C(=O)C(C)CC3C)cc2)cc2cc(C(F)(F)F)nc(C(=O)Nc3ccc(F)c(C(N)=O)c3)c21 (centres unmarked) [Ex. 135] | 85 | 530 |  |  |  |
| COCCn1c(-c2ccc(N3C(=O)C(C)CC3C)cc2)cc2ccnc(C(=O)Nc3cccc(C(N)=O)c3)c21 (centres unmarked) [Ex. 136] | 61 | 480 |  |  |  |
| COCCn1c(-c2ccc(N3C(=O)C(C)CC3C)cc2)cc2ccnc(C(=O)Nc3ccc(F)c(C(N)=O)c3)c21 (centres unmarked) [Ex. 137] | 62 | 280 |  |  |  |
| COCCn1c(-c2ccc(-n3c(C)nn(C)c3=O)cc2)cc2cc(C(F)(F)F)cc(COc3cccc(C(N)=O)c3)c21 [Ex. 138] | 35 | 370 | 93 |  |  |

| Structure (SMILES) | inhibition at 0.1 µM (human STAT6; compound 0.1 μmol/L) [%] | IC50 (human STAT6/pIL-4Rα) [nM] | inhibition at 1 µM (human STAT6; compound 1 μmol/L) [%] | Inhibition rate (%) (human STAT6; compound 0.1 μmol/L) | Inhibition rate (%) (human STAT6; compound 1 μmol/L) |
| --- | --- | --- | --- | --- | --- |
| COCCn1c(-c2ccc(-n3c(C)nn(C)c3=O)cc2)cc2cc(C(F)(F)F)cc(CNc3cccc(C(N)=O)c3)c21 [Ex. 139] | 8 | 1940 | 69 |  |  |
| CCn1c(-c2ccc(-n3c(C)nn(C)c3=O)cc2)c(I)c2cncc(C(=O)Nc3ccc(F)c(C(N)=O)c3)c21 [Ex. 140] | 3 | 2720 | 45 |  |  |
| CCn1c(-c2ccc(-n3cnn(C)c3=O)cc2)c(Cl)c2cc(C(F)(F)F)cc(C(=O)Nc3ccc(F)c(C(N)=O)c3)c21 [Ex. 142] | 94 | 300 | 100 |  |  |
| COCCn1c(-c2ccc(-n3c(C)nn(C)c3=O)cc2)c(Cl)c2cc(C(F)(F)F)cc(C(=O)Nc3ccc(F)c(C(N)=O)c3)c21 [Ex. 143] | 87 | 390 | 99 |  |  |
| CCn1c(-c2ccc(-n3ncn(C)c3=O)cc2)cc2ccnc(C(=O)Nc3ccc(F)c(C(N)=O)c3)c21 [Ex. 144] | 48 | 370 | 99 |  |  |
| CCn1c(-c2ccc(-n3c(C)nn(C)c3=O)nc2)cc2cccc(C(=O)Nc3cccc(C(N)=O)c3F)c21 [Ex. 145] | 53 | 280 | 97 |  |  |
| CCn1c(-c2ccc(N3CCCC3=O)cc2)cc2cc(C(F)(F)F)cc(C(=O)Nc3ccc(F)c(C(N)=O)c3)c21 [Ex. 146] | 55 | 750 | 87 |  |  |
| CCn1c(-c2ccc(N3C(=O)C(C)CC3C)cc2)cc2ccnc(C(=O)Nc3ccc(F)c(C(=O)NCC#N)c3)c21 (centres unmarked) [Ex. 147] | 48 | 780 | 91 |  |  |
| CCn1c(-c2ccc(C(=O)N(C)C)cc2)cc2ccnc(C(=O)Nc3ccc(F)c(C(=O)NCC#N)c3)c21 [Ex. 148] | 86 | 330 |  |  |  |
| CCn1c(-c2ccc(NC(C)=O)cc2)cc2ccnc(C(=O)Nc3ccc(F)c(C(=O)NCC#N)c3)c21 [Ex. 149] | 25 | 330 | 84 |  |  |
| CCn1c(-c2ccc(N3CCOCC3=O)cc2)cc2ccnc(C(=O)Nc3ccc(F)c(C(=O)NCC#N)c3)c21 [Ex. 150] | 38 | 240 | 89 |  |  |
| CCn1c(-c2ccc(-n3c(C)nn(C)c3=O)nc2)cc2cccc(C(=O)Nc3ccc(F)c(C(N)=O)c3)c21 [Ex. 151] | 26 | 610 | 77 |  |  |
| CCn1c(-c2ccc(-n3c(C)nn(C)c3=O)cc2C(F)(F)F)cc2cc(C(F)(F)F)cc(C(=O)Nc3ccc(F)c(C(N)=O)c3)c21 [Ex. 152] | 38 | 650 | 84 |  |  |
| CCn1c(-c2ccc(C(=O)N(C)C)cc2)cc2cc(C(F)(F)F)cc(C(=O)Nc3ccc(F)c(C(N)=O)c3)c21 [Ex. 153] | 25 | 940 | 93 |  |  |
| CCn1c(-c2ccc(-n3c(C(F)F)nn(C)c3=O)cc2)cc2cc(C(F)(F)F)cc(C(=O)Nc3ccc(F)c(C(N)=O)c3)c21 [Ex. 154] | 52 | 280 | 99 |  |  |
| CCc1nn(C)c(=O)n1-c1ccc(-c2cc3cc(C(F)(F)F)cc(C(=O)Nc4ccc(F)c(C(N)=O)c4)c3n2CC)cc1 [Ex. 155] | 69 | 380 | 100 |  |  |
| CCn1c(-c2ccc(-n3ncn(C)c3=O)cc2)cc2cccc(C(=O)Nc3ccc(F)c(C(N)=O)c3)c21 [Ex. 156] | 46 | 400 | 99 |  |  |
